The subject of this assay is HT29 cells. Nature of the assay: LPS-induced IL-8 production by HT29 intestinal epithelial cells (ELISA). The format is cell-based, human. The conditions noted are these: compounds 50 mg/L to 5 μg/L for 18 h, then LPS (Salmonella enterica abortus equi) 1 μg/ml 6 h. Here is the method:
FIG. 2A. LPS-induced IL-8 production by HT29 cells in the absence or presence of the indicated concentrations of compound (c) 4, 5, 6, 7, 4′, 14.
The effect of the compounds on the release of IL-8 or KC was tested upon stimulation of intestinal epithelial cells (IEC) with LPS from Salmonella enterica abortus equi. The human IEC line HT29 was used for these experiments. Cells were cultured for 18 h in medium alone or in medium additioned with different concentrations of compounds 4, 5, 6, 7, 4′ and 14 (from 50 mg/L to 5 μg/L). Then, cells were stimulated for 6 h with LPS (1 μg/ml). […] Similar experiments were performed on a human pneumocyte type II cell line (A549) using compound 4 and LPS from Pseudomonas aeruginosa.
Consider `CN(C)c1cccc2c(S(=O)(=O)NCC[C@H]3O[C@H](CO)[C@H](O)[C@H](O)[C@H]3O)cccc12` [4′, 5-(Dimethylamino)-N-[2′-(α-D-galactopyranosyl)ethyl]-1-naphthalenesulfonamide], for which the “production of IL-8 induced by LPS” value is listed as “significantly inhibited”.
In the case of `O=S(=O)(NCC[C@H]1O[C@H](CO)[C@@H](O)[C@H](O)[C@H]1O)c1cccc2ccccc12` [Compound 5] it was “significantly inhibited”.
`O=C(NCC[C@H]1O[C@H](CO)[C@@H](O)[C@H](O)[C@H]1O)c1cccc2ccccc12` [Compound 6, N-[2′-(α-D-Glucopyranosyl)ethyl]-1-naphtalenecarboxyamide]: the “production of IL-8 induced by LPS” value is recorded as “significantly inhibited”.
Under `CCCCN(CCCC)c1cccc2c(S(=O)(=O)NCC[C@H]3O[C@H](CO)[C@@H](O)[C@H](O)[C@H]3O)cccc12` [Compound 7, 5-(Dibutylamino)-N-[2′-(α-D-glucopyranosyl)ethyl]-1-naphthalenesulfonamide] stands “significantly inhibited”.
Consider `CN(C)c1cccc2c(S(=O)(=O)NCCCC[C@H]3O[C@H](CO)[C@@H](O)[C@H](O)[C@H]3O)cccc12` [Compound 14, 5-(Dimethylamino)-N-[4′-(α-D-glucopyranosyl)butyl]-1-naphthalenesulfonamide], for which the “production of IL-8 induced by LPS” value is reported as “significantly inhibited”.

Values taken from patent US20110112184A1, “COMPOUNDS WITH GLYCIDIC STRUCTURE ACTIVE IN THE THERAPY OF SYSTEMIC AND LOCAL INFLAMMATION” (priority 2008, published 2011).
